# Experimental data from PubChem BioAssay AID1963422 (Molecular Pharmacology Branch, DTP, NCI, 2024).
# Test system: 463943-066-T-J2-PDC complex spheroid growth
# Test: Anticancer human tumor 463943-066-T-J2-PDC patient-derived colon adenocarcinoma cell line growth inhibition [Asc]
# Conditions: for IC50: curve of first compound; for viability, T/C: stronger effect = lower value
# Procedure, shortened: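 Complex spheroids combining tumor cells with HUVEC endothelial cells and human MSCs, at 37 degrees C, 5% CO2; agents tested alone or combined, half-log dilutions from at or near clinical Cmax, or 10 microM if Cmax unknown.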
# [1] = second compound 0.00316 µM, first compound 0.0316 µM
# [2] = second compound 0.00316 µM, first compound 0.1 µM
# [3] = second compound 0.00316 µM, first compound 0.316 µM
# [4] = second compound 0.00316 µM, first compound 1 µM
# [5] = second compound 0.00316 µM, first compound 3.16 µM
# [6] = second compound 0.00316 µM, first compound 10 µM
# [7] = second compound 0.01 µM, first compound 0.0316 µM
# [8] = second compound 0.01 µM, first compound 0.1 µM
# [9] = second compound 0.01 µM, first compound 0.316 µM
# [10] = second compound 0.01 µM, first compound 1 µM
# [11] = second compound 0.01 µM, first compound 3.16 µM
# [12] = second compound 0.01 µM, first compound 10 µM
# [13] = second compound 0.0316 µM, first compound 0.0316 µM
# [14] = second compound 0.0316 µM, first compound 0.1 µM
# [15] = second compound 0.0316 µM, first compound 0.316 µM
# [16] = second compound 0.0316 µM, first compound 1 µM
# [17] = second compound 0.0316 µM, first compound 3.16 µM
# [18] = second compound 0.0316 µM, first compound 10 µM
# [19] = second compound 0.1 µM, first compound 0.0316 µM
# [20] = second compound 0.1 µM, first compound 0.1 µM
# [21] = second compound 0.1 µM, first compound 0.316 µM
# [22] = second compound 0.1 µM, first compound 1 µM
# [23] = second compound 0.1 µM, first compound 3.16 µM
# [24] = second compound 0.1 µM, first compound 10 µM
# [25] = second compound 0.316 µM, first compound 0.0316 µM
# [26] = second compound 0.316 µM, first compound 0.1 µM
# [27] = second compound 0.316 µM, first compound 0.316 µM
# [28] = second compound 0.316 µM, first compound 1 µM
# [29] = second compound 0.316 µM, first compound 3.16 µM
# [30] = second compound 0.316 µM, first compound 10 µM
# [31] = second compound 1 µM, first compound 0.0316 µM
# [32] = second compound 1 µM, first compound 0.1 µM
# [33] = second compound 1 µM, first compound 0.316 µM
# [34] = second compound 1 µM, first compound 1 µM
# [35] = second compound 1 µM, first compound 3.16 µM
# [36] = second compound 1 µM, first compound 10 µM
# 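Further: compound exposure lasted 7 days.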
# 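Wherever viability, T/C is given: 100% = DMSO vehicle control wells.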
smiles,measurement,setting,value
NC(=O)C(=Cn1cnc(-c2cc(C(F)(F)F)cc(C(F)(F)F)c2)n1)c1cncnc1 + CNC(C)C(=O)NC1CN(S(=O)(=O)c2cccc(S(=O)(=O)N3CCC4CCC(C(=O)NC(c5ccccc5)c5ccccc5)N4C(=O)C(NC(=O)C(C)NC)C3)c2)CCC2CCC(C(=O)NC(c3ccccc3)c3ccccc3)N2C1=O,IC50,second compound 0.00316 µM,> 0.3 µM
same,IC50,second compound 0.01 µM,> 0.3 µM
same,IC50,second compound 0.0316 µM,> 0.3 µM
same,IC50,second compound 0.1 µM,> 0.3 µM
same,IC50,second compound 0.316 µM,> 0.3 µM
same,IC50,second compound 1 µM,> 0.3 µM
same,"viability, T/C","second compound 0.00316 µM, first compound 0.000949 µM",84.3%
same,"viability, T/C","second compound 0.00316 µM, first compound 0.003 µM",77.2%
same,"viability, T/C","second compound 0.00316 µM, first compound 0.00949 µM",77.4%
same,"viability, T/C","second compound 0.00316 µM, first compound 0.03 µM",78.7%
same,"viability, T/C","second compound 0.00316 µM, first compound 0.0949 µM",73.2%
same,"viability, T/C","second compound 0.00316 µM, first compound 0.3 µM",64.8%
same,"viability, T/C","second compound 0.01 µM, first compound 0.000949 µM",95.8%
same,"viability, T/C","second compound 0.01 µM, first compound 0.003 µM",87.6%
same,"viability, T/C","second compound 0.01 µM, first compound 0.00949 µM",80.8%
same,"viability, T/C","second compound 0.01 µM, first compound 0.03 µM",84.9%
same,"viability, T/C","second compound 0.01 µM, first compound 0.0949 µM",85.1%
same,"viability, T/C","second compound 0.01 µM, first compound 0.3 µM",65.3%
same,"viability, T/C","second compound 0.0316 µM, first compound 0.000949 µM",82.4%
same,"viability, T/C","second compound 0.0316 µM, first compound 0.003 µM",81.2%
same,"viability, T/C","second compound 0.0316 µM, first compound 0.00949 µM",80.4%
same,"viability, T/C","second compound 0.0316 µM, first compound 0.03 µM",88.3%
same,"viability, T/C","second compound 0.0316 µM, first compound 0.0949 µM",83.9%
same,"viability, T/C","second compound 0.0316 µM, first compound 0.3 µM",66.6%
same,"viability, T/C","second compound 0.1 µM, first compound 0.000949 µM",90.7%
same,"viability, T/C","second compound 0.1 µM, first compound 0.003 µM",82.6%
same,"viability, T/C","second compound 0.1 µM, first compound 0.00949 µM",82.5%
same,"viability, T/C","second compound 0.1 µM, first compound 0.03 µM",85%
same,"viability, T/C","second compound 0.1 µM, first compound 0.0949 µM",80.5%
same,"viability, T/C","second compound 0.1 µM, first compound 0.3 µM",67.3%
same,"viability, T/C","second compound 0.316 µM, first compound 0.000949 µM",85.2%
same,"viability, T/C","second compound 0.316 µM, first compound 0.003 µM",82.4%
same,"viability, T/C","second compound 0.316 µM, first compound 0.00949 µM",82.5%
same,"viability, T/C","second compound 0.316 µM, first compound 0.03 µM",78.9%
same,"viability, T/C","second compound 0.316 µM, first compound 0.0949 µM",80.3%
same,"viability, T/C","second compound 0.316 µM, first compound 0.3 µM",64.2%
same,"viability, T/C","second compound 1 µM, first compound 0.000949 µM",78.2%
same,"viability, T/C","second compound 1 µM, first compound 0.003 µM",91.9%
same,"viability, T/C","second compound 1 µM, first compound 0.00949 µM",78.5%
same,"viability, T/C","second compound 1 µM, first compound 0.03 µM",77.4%
same,"viability, T/C","second compound 1 µM, first compound 0.0949 µM",73.3%
same,"viability, T/C","second compound 1 µM, first compound 0.3 µM",58.5%
O=C(c1cc(Cc2n[nH]c(=O)c3ccccc23)ccc1F)N1CCN(C(=O)C2CC2)CC1 + CNC(C)C(=O)NC1CN(S(=O)(=O)c2cccc(S(=O)(=O)N3CCC4CCC(C(=O)NC(c5ccccc5)c5ccccc5)N4C(=O)C(NC(=O)C(C)NC)C3)c2)CCC2CCC(C(=O)NC(c3ccccc3)c3ccccc3)N2C1=O,IC50,second compound 0.00316 µM,> 10 µM
same,IC50,second compound 0.01 µM,> 10 µM
same,IC50,second compound 0.0316 µM,> 10 µM
same,IC50,second compound 0.1 µM,> 10 µM
same,IC50,second compound 0.316 µM,> 10 µM
same,IC50,second compound 1 µM,> 10 µM
same,"viability, T/C",[1],91.4%
same,"viability, T/C",[2],95.9%
same,"viability, T/C",[3],96.9%
same,"viability, T/C",[4],103%
same,"viability, T/C",[5],89.4%
same,"viability, T/C",[6],86.2%
same,"viability, T/C",[7],94.1%
same,"viability, T/C",[8],87.5%
same,"viability, T/C",[9],91.9%
same,"viability, T/C",[10],97.5%
same,"viability, T/C",[11],110%
same,"viability, T/C",[12],87.6%
same,"viability, T/C",[13],98.1%
same,"viability, T/C",[14],100%
same,"viability, T/C",[15],97.4%
same,"viability, T/C",[16],99.2%
same,"viability, T/C",[17],92.8%
same,"viability, T/C",[18],82.9%
same,"viability, T/C",[19],106%
same,"viability, T/C",[20],93.3%
same,"viability, T/C",[21],90.6%
same,"viability, T/C",[22],95.8%
same,"viability, T/C",[23],91.3%
same,"viability, T/C",[24],86.2%
same,"viability, T/C",[25],90.9%
same,"viability, T/C",[26],91.8%
same,"viability, T/C",[27],85.1%
same,"viability, T/C",[28],98.1%
same,"viability, T/C",[29],87.2%
same,"viability, T/C",[30],91.3%
same,"viability, T/C",[31],90.5%
same,"viability, T/C",[32],95%
same,"viability, T/C",[33],84.4%
same,"viability, T/C",[34],89.7%
same,"viability, T/C",[35],85.9%
same,"viability, T/C",[36],80.9%
C#Cc1c(F)ccc2cc(O)cc(-c3ncc4c(N5CC6CCC(C5)N6)nc(OCC56CCCN5CC(F)C6)nc4c3F)c12 (stereo unspecified) + CNC(C)C(=O)NC1CN(S(=O)(=O)c2cccc(S(=O)(=O)N3CCC4CCC(C(=O)NC(c5ccccc5)c5ccccc5)N4C(=O)C(NC(=O)C(C)NC)C3)c2)CCC2CCC(C(=O)NC(c3ccccc3)c3ccccc3)N2C1=O,IC50,second compound 0.00316 µM,> 10 µM
same,IC50,second compound 0.01 µM,> 10 µM
same,IC50,second compound 0.0316 µM,> 10 µM
same,IC50,second compound 0.1 µM,> 10 µM
same,IC50,second compound 0.316 µM,> 10 µM
same,IC50,second compound 1 µM,> 10 µM
same,"viability, T/C",[1],105%
same,"viability, T/C",[2],103%
same,"viability, T/C",[3],94.3%
same,"viability, T/C",[4],123%
same,"viability, T/C",[5],94%
same,"viability, T/C",[6],99.5%
same,"viability, T/C",[7],101%
same,"viability, T/C",[8],99.9%
same,"viability, T/C",[9],97.4%
same,"viability, T/C",[10],102%
same,"viability, T/C",[11],99.3%
same,"viability, T/C",[12],101%
same,"viability, T/C",[13],102%
same,"viability, T/C",[14],101%
same,"viability, T/C",[15],94.3%
same,"viability, T/C",[16],103%
same,"viability, T/C",[17],100%
same,"viability, T/C",[18],91.3%
same,"viability, T/C",[19],109%
same,"viability, T/C",[20],92%
same,"viability, T/C",[21],98%
same,"viability, T/C",[22],94.6%
same,"viability, T/C",[23],101%
same,"viability, T/C",[24],85.7%
same,"viability, T/C",[25],88%
same,"viability, T/C",[26],94.2%
same,"viability, T/C",[27],89.6%
same,"viability, T/C",[28],93.3%
same,"viability, T/C",[29],100%
same,"viability, T/C",[30],81.8%
same,"viability, T/C",[31],90.7%
same,"viability, T/C",[32],85.6%
same,"viability, T/C",[33],80.8%
same,"viability, T/C",[34],87.7%
same,"viability, T/C",[35],85.6%
same,"viability, T/C",[36],72%
